Test results reported in patent publication US20250162973A1, “METHODS OF SYNTHESIS AND USES OF AGRIMOL COMPOUNDS” (Versitech Limited, priority 2022, published 2025).
Where two headings read alike, the source gives them in different places.

How the values were obtained:
H460 cell line = assay: MTT cell viability assay; format: cell-based, human; conditions: Homo sapiens, NCI-H460
Procedure: (§1) SUNE1 (nasopharyngeal carcinoma), AGS (gastric adenocarcinoma), HeLa (cervix adenocarcinoma), HepG2 (hepatocellular carcinoma), U-87 MG (human glioblastoma cell), U2OS (osteosarcoma), MCF-7 (breast adenocarcinoma), MDA-MB-231 (breast adenocarcinoma), HCT116 (colorectal carcinoma), SW480 (colorectal adenocarcinoma), NCI-H460 (large cell lung carcinoma), NCI-H1650 (adenocarcinoma lung carcinoma), HCC827 (adenocarcinoma lung carcinoma), A549 (lung carcinoma), and CCD-19Lu (human lung fibroblast normal cell) were all obtained from American Type Culture Collection (ATCC, Manassas, VA, USA). Minimum Essential Media (MEM, Gibco®, ThermoFisher Scientific), Dulbecco's Modified Eagle Medium (DMEM, Gibco®, ThermoFisher Scientific), and RPMI-1640 Medium (Gibco®, ThermoFisher Scientific) supplemented with 10% Fetal Bovine Serum (Gibco®, ThermoFisher Scientific), and 100 U/mL penicillin-streptomycin (Gibco™, ThermoFisher Scientific) were used for cell culture. Cells were placed into an incubator with 5% CO2 that temperature was set at 37° C. For subculturing cells, 0.05% Trypsin-EDTA (Gibco®) was used for detaching and a subcultivation ratio of 1:5 was used.
(§2) The cell viability assay was performed by a typical MTT assay. Briefly, 5*10^3 cells were seeded in the 96-well flat bottom plate and allowed to attach overnight. After drug treatment with a serial dilution from 100 μM for 48 h, 10 μL of MTT solution (5 mg/ml prepared in PBS, filtered) was added into each well and incubate for 4 h at 37° C. The formed formazan was then dissolved with SDS solution (10% SDS in 10 mM HCl) and followed the determination of absorbance at 590 nm by a microplate reader. The change in cell viability was then calculated for each drug concentration, then normalized to control. Dose response curves from each assay were fit to a Boltzmann sigmoidal function (GraphPad Prism8, version8.0.0). The cytotoxicity of AGB and its derivatives was determined by the calculation of IC50 value (half maximal inhibitory concentration) from fitted curves, which was the concentration of drug induced 50% cell viability.

AGS cell line = assay: MTT cell viability assay; format: cell-based, human; conditions: Homo sapiens, AGS; MTT method, 48 h
Procedure: as §1, §2

MDA-MB-231 cell line = assay: MTT cell viability assay; format: cell-based, human; conditions: Homo sapiens, MDA-MB-231; MTT method, 48 h
Procedure: as §1, §2

HeLa cell line = assay: MTT cell viability assay; format: cell-based, human; conditions: Homo sapiens, HeLa; MTT method, 48 h; read-out: IC50 HeLa cell line
Procedure: as §1, §2

NCI-H460 xenograft = assay: Human tumor xenograft model; format: in vivo, BALB/c nude mice; conditions: AGB 3 mg/kg, tail intravenous injection
Procedure: In vivo anticancer efficacy of AGB was evaluated using the human tumor xenograft model, in which human cancer cells were inoculated into immune-deficiency mice. Briefly, twelve six-week-old (16-18 g) BALB/c nude mice were randomly divided into two groups and both received subcutaneous injection of NCI-H460 cells (2 million cells in 0.1 mL PBS) at its right flank of mice and tumor became palpable after three days of injection. Mice were received intravenous (i.v.) injections of AGB or vehicle control (10% DMSO and 0.05% Tween 80 in normal saline) every two days in two weeks. The length and width of tumor were measured by Vernier caliper and the body weight was monitored every two or three days. At the end of experiment, mice were sacrificed and decapitated. The liver, kidney, and tumor were collected and fixed in 4% formaldehyde for further haematoxylin and eosin (H&E) staining. All animal experiments in this project received human care and study protocols complied with the guidelines of the Laboratory Animal Services Centre of the University of Hong Kong. Tumor sizes and body weight were recorded before the drug injection every time and tumor volume (V) was calculated by the formula V=LW^2/2, where L is tumor length and W is tumor width. […]
The in vivo antitumor potential of AGB using the xenograft mouse model was assessed. […]

NCI-H460 spheres = assay: Sphere formation assay (tumorsphere self-renewal); format: cell-based; conditions: Homo sapiens, read-out: tumorsphere forming efficiency, inhibition; for inhibition at 1 µM: 1.0 μM AGB
Procedure: NCI-H460 cells were seeded at 3,000 cells/ml per well in specific sphere formation medium (DMEM/F12 supplemented with 20 ng/ml EGF, 20 ng/ml bFGF and 1×B-27) with or without AGB (DMSO as vehicle, 0.5 and 1.0 μM of AGB for the assay) in a 6-well Ultra Low Cluster Plate (Costar®). The concentration of DMSO was normalized to 0.5% in all wells and was 0.5%. The cells were incubated at 37° C. for five days and the spheres were photographed under an inverted microscope at 40× magnification. Primary tummorsphere were collected and enzymatically dissociated using trypsin to generate the secondary tummorsphere. The dissociated cells were re-plated at a density of 2,000 cells/mL for subsequent passages. The images were captured and four fields were randomly chosen and the relative areas occupied by the spheres were measured using ImageJ (National Institutes of Health, Bethesda, MD). Representative images were obtained from three independent experiments.

## CCCC(=O)c1c(O)c(Cc2c(O)c(Cc3c(O)c(C)c(OC)c(C(=O)CCC)c3O)c(O)c(C(=O)[C@@H](C)CC)c2O)c(O)c(C)c1OC [AGB, Agrimol B]
H460 cell line; MTT method, 48 h, read-out: IC50 H460 cell line
  IC50: 1850 nM
H460 cell line; for 48 h, cell line not given, read-out: IC50 value of AGB
  IC50: 2300 nM
AGS cell line
  IC50: 2650 nM
MDA-MB-231 cell line
  IC50: 2160 nM
HeLa cell line
  IC50: 810 nM
NCI-H460 xenograft
  tumor growth inhibition rate: 57%
NCI-H460 spheres; NCI-H460, primary tumorspheres
  inhibition at 1 µM: 40.6%
NCI-H460 spheres; NCI-H460, secondary tumorspheres, 0.5 μM AGB
  inhibition at 0.5 µM: 54.7%
NCI-H460 spheres; NCI-H460, secondary tumorspheres
  inhibition at 1 µM: 69.7%
